Assay results as given in patent US20170112861A1, “DRUG DELIVERY ENHANCER COMPRISING SUBSTANCE FOR ACTIVATING LYSOPHOSPHOLIPID RECEPTORS” (Osaka University, priority 2014, published 2017).

Key:
[1] = test system: Mouse pancreatic vascular endothelial cell line (MS-1); test: In vitro barrier function of endothelial cell-cell junctions (ECIS-Zθ, resistance between cells Rb); assay type: cell-based; settings: MS-1 cells, 10 μM
Procedure: In vitro barrier function of the cell-cell junctions of vascular endothelial cells in the presence of LPA or VPC 31144 (S) was analyzed using a real-time cell ECIS-Zθ analyzer (Applied Biophysics).
LPA and VPC 31144 (S) were each dissolved in 50% ethanol as a 10 mM LPA stock solution and stored at −30° C. Before use, the LPA stock solution was thawed and homogenized with an ultrasonic cleaner (SND Co., Ltd.) for 1 minute. The solution was diluted in a serum-free culture medium supplemented with 0.1% BSA to a concentration of 10 μM.
Mouse pancreatic vascular endothelial cell line (MS-1) was used. The cells were suspended in DMEM (Sigma) containing 5% FBS. The cell suspension was seeded on a well plate with electrodes (8W10E+, 8 wells) specially designed for the analyzer at a density of 1×10^5 cells in 400 μL per well, and the cells were cultured overnight in an incubator to confluence. The medium was replaced by serum-free culture medium containing 0.1% BSA, and the cells were incubated for 4 hours. The medium was replaced by culture medium (serum-free culture medium containing 0.1% BSA) containing 10 μM LPA or VPC 31144 (S). The medium of the control cultures was replaced by serum-free culture medium containing 0.1% BSA. After replacement of the medium, resistance between cells (Rb) was measured in real time to evaluate the barrier function.

[2] = test system: Mouse colon cancer colon 26 cells; test: Combined administration of LPA and 5-FU, tumor growth in colon 26 cell tumor-bearing mice; assay type: in vivo; settings: colon 26 tumors in BALB/c mice; LPA 3 mg/kg i.p. once daily for seven days; 5-FU 100 mg/kg i.p. on days 7 and 14
Procedure: LLC cells were subcutaneously inoculated into C57BL/6 NCrSlc mice aged 8 weeks in the same manner as in Example 1. An LPA administration solution was prepared in the same manner as in Example 1. The anticancer drug used was 5-FU (Kyowa Hakko Kirin Co., Ltd.). The 5-FU was prepared as a solution in physiological saline (Otsuka Pharmaceutical Co., Ltd.). On day 7 post-inoculation of LLC cells, mice with a tumor volume of 30 to 50 mm^3 were selected and subjected to the test. The mice were divided into four groups: control group, 5-FU group, LPA group and 5-FU/LPA group (n=3). LPA (3 mg/kg in 100 μL PBS) or 5-FU (100 mg/kg in 100 μL PBS) or PBS (100 μL) was administered intraperitoneally. To 5-FU/LPA group, both LPA and 5-FU were administered intraperitoneally. LPA and PBS were administered once daily for consecutive seven days. 5-FU was administered twice in total, once a week for two weeks (on days 7 and 14 post-inoculation). The tumor size was measured over time after start of administration. The tumor volume was calculated by the formula: volume=length×width×height×0.5. Mice at 2 weeks after start of administration were photographed with a digital camera under anesthesia with pentobarbital. The tumors were harvested and photographed with a digital camera.
Mouse colon cancer colon 26 cells were used. […]

[3] = test system: tumor blood vessels of LLC cell tumors; test: Structural changes in tumor blood vessels after LPA administration (anti-CD31 immunostaining, AngioTool); assay type: in vivo; settings: LLC tumor-bearing mice, LPA 3 mg/kg i.p.
Procedure: Lewis lung cancer cell line (hereinafter called LLC cells) was used as the mouse cancer cell line. LLC cells (1×10^6 cells in 100 μL PBS per animal) were subcutaneously injected into C57BL/6 NCrSlc mice aged 8 weeks (females, SLC, Inc.).
The LPA used was 18:1 LPA (Avanti Polar Lipids, Inc.). A 10 mM LPA stock solution was prepared using 50% ethanol and the solution was stored at −30° C. Before use, the LPA stock solution was thawed and homogenized with an ultrasonic cleaner (SND Co., Ltd.) for 1 minute. The solution was diluted in PBS before administration so that the concentration of LPA was 3 mg/kg in 100 μL PBS. The prepared solution was used for LPA administration.
Day 9 post-inoculation of LLC cells, mice that developed a tumor with a volume of 60 to 80 mm^3 (volume=length×width×height×0.5) were selected and used for the test. Four groups each of three mice were provided: control group, LPA/6 hr group, LPA/12 hr group and LPA/24 hr group. LPA was intraperitoneally administered to the mice of the LPA groups at a dose of 3 mg/kg in 100 μL PBS. The tumors were harvested before LPA administration (control group), and at 6, 12 and 24 hours after LPA administration. The tumors were immersed in 4% paraformaldehyde (PFA)/PBS and shaken at 4° C. overnight for fixation. The tumors were washed with cold PBS (4° C.). Washing was continued for 6 hours, and PBS was renewed every 30 minutes. The tumors were immersed in 15% sucrose/PBS and shaken at 4° C. for 3 hours. The tumors were then immersed in 30% sucrose/PBS and shaken at 4° C. for 3 hours. The tumors were embedded in O.C.T compound (Tissue-Tek) and frozen at −80° C. for 3 days or longer.
The tumors embedded in O.C.T. compound were sectioned at 40 μm with a cryostat (Leica). The sections were placed on glass slides, and air-dried for 2 hours with a drier. The sections were encircled with a liquid blocker. […] The vessel length was measured in the photographs using the vascular structure analysis software AngioTool.

lysophosphatidic acid [LPA] was tested, and the “duration of the increased barrier function” value [1] was “the increased barrier function in endothelial cells was maintained over a long period of time”, the “electric resistance (Rb), barrier function in endothelial cells” value ([1]; serum-free medium with 0.1% BSA, vs control) was “increased the electric signals as compared with the control” and the “tumor growth (tumor volume)” value [2] was “some inhibitory effects on tumor growth as compared with the control, up to day 17 post-inoculation”. For the same substance, the “structure of tumor blood vessels (vascular network)” value ([3]; 12 and 24 hours after administration) was “the formation of a fine vascular network similar to that in normal tissues was observed”, the “structure of tumor blood vessels (vascular network)” value ([3]; 6 hours after administration) was “the connection of the blood vessels was observed” and the “average length of blood vessels (AngioTool)” value ([3]; vs before administration) was “the length of blood vessels was increased”.
